From EP3088389A1, “4-EPI-ISOFAGOMINE DERIVATIVES” (Dorphan S.A., priority 2015, dated 2016)

Legend:
Beta-galactosidase [1] = target: T1, Beta-galactosidase (Homo sapiens, UniProt P16278); test: Inhibition of wild type beta-galactosidase activity in human peripheral blood mononuclear cell lysate (Example 3); format: biochemical
T1 construct: endogenous in cells; host or cells: human peripheral blood mononuclear cells (lysate)
T1 sequence (P16278 29-677): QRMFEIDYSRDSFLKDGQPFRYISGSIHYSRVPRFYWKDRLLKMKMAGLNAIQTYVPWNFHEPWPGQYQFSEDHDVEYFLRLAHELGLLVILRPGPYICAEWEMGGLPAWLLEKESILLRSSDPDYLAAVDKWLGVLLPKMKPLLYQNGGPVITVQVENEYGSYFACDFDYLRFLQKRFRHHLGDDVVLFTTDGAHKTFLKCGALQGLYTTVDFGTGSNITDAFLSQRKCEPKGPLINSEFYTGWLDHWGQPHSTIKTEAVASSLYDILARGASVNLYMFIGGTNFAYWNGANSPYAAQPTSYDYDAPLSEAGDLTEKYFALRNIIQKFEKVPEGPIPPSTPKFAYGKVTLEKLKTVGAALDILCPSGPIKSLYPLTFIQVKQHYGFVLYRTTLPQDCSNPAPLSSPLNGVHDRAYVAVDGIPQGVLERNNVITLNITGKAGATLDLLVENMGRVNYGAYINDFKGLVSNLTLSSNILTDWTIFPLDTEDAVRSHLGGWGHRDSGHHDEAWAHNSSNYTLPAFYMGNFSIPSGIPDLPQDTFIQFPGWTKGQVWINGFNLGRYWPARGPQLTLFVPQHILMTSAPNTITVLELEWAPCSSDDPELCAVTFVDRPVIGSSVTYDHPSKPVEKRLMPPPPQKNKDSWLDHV
Description: (§1) Samples of human peripheral blood mononuclear cell lysate (2 x 10^6 cells per assay) were incubated with graded concentrations of compound in 25 mM sodium phosphate, pH 7.3, supplemented with 0.5% Triton X-100 and protease inhibitors, and 0.8 mM of 4-methylumbelliferyl β-D-galactopyranoside. After an incubation of 2 hours at 37°C, the enzymatic reactions were stopped by the addition of 0.15 M glycine, pH 10.2, and fluorescence was measured at 445 nm using an excitation wavelength of 365 nm.

Beta-galactosidase [2] = target: T1, Beta-galactosidase; test: Inhibition of wild type beta-galactosidase activity in human peripheral blood mononuclear cell lysate (Example 1); format: biochemical; conditions: for IC50: human PBMC lysate, pH 7.3, 2 hours at 37°C
Description: as §1, with “compound N-nonyl-4-epi-isofagomine or 4-epi-isofagomine” for “compound”, “50” for “25”, “1%” for “0.5%”, “nm. The stock solutions of compound were at 20 mM in DMSO.” for “nm.”
The results obtained with N-nonyl-4-epi-isofagomine (squares), 4-epi-isofagomine (triangles) and DMSO vehicle (circles) are presented on figure 1.

Alpha-galactosidase = target: T2, Alpha-galactosidase (Homo sapiens, UniProt P06280); test: Glycosidase specificity panel (Example 4); format: biochemical
T2 sequence (P06280 32-429): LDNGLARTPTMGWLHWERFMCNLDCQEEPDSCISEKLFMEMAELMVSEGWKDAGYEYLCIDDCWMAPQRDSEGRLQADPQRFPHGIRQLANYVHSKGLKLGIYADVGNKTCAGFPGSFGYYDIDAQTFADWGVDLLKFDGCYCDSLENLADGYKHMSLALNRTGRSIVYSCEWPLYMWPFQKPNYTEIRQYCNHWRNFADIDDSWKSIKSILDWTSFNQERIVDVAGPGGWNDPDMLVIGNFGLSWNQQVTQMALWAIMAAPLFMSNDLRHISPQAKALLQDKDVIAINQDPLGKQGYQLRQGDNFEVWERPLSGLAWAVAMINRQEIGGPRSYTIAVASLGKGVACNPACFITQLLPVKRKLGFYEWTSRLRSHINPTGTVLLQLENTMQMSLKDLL
From the text: (§2) IC50 values indicated in table 1 are the concentrations of (2R,3R,4S,5R)-3-hydroxymethyl-2-pentylpiperidine-4,5-diol compound required to inhibit by half the different enzymatic activities.

Beta-glucuronidase = target: T3, Beta-glucuronidase (Homo sapiens, UniProt P08236); test: Glycosidase specificity panel (Example 4); format: biochemical
T3 sequence (P08236 23-651): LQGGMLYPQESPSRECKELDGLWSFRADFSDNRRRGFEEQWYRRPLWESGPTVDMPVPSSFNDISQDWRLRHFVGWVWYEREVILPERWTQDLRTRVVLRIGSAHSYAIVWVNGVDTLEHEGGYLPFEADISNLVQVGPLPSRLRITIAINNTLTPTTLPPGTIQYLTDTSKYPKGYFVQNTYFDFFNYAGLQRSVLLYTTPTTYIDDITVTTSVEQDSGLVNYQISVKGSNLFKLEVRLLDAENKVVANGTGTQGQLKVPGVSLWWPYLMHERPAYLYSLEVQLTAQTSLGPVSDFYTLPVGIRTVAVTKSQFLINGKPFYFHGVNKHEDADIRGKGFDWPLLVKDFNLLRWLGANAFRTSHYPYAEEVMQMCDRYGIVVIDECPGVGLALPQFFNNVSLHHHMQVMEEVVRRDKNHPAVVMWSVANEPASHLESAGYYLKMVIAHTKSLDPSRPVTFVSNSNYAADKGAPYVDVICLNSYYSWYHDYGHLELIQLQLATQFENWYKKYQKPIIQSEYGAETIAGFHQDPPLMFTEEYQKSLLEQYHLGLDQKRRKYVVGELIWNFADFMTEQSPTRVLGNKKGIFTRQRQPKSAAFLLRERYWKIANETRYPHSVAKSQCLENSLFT
From the text: as §2

Beta-galactosidase [3] = target: T1, Beta-galactosidase; test: Prevention of heat denaturation of beta-galactosidase in PBMC lysate at 48°C (Example 5); format: biochemical
From the text: The capacity of a compound of protecting an enzyme from denaturation predicts to some extent its pharmacological chaperone activity, i.e. its capacity of restoring enzymatic activity in patient cells exposed to the compound. The Applicant has evaluated whether (2R,3R,4S,5R)-3-hydroxymethyl-2-pentylpiperidine-4,5-diol can prevent heat denaturation of human beta-galactosidase following a procedure described by Suzuki et al 2014.
Samples of human peripheral blood mononuclear cell lysate (2 x 10^6 cells) in phosphate buffer, pH 7.3, 0.5% Triton X-100 and protease inhibitors were incubated at 48°C for 0, 5, 10, 20, and 40 minutes in the presence of graded concentrations of (2R,3R,4S,5R)-3-hydroxymethyl-2-pentylpiperidine-4,5-diol. The samples were then diluted in citrate buffer, pH 4.3, and 0.25 mM of 4-methylumbelliferyl β-D-galactopyranoside. After an incubation of 17 hours at 37°C, the reaction was stopped by the addition of glycine 0.15 M, pH 10.2. Fluorescence was determined at 445 nm using an excitation wavelength at 365 nm. The tested concentrations of (2R,3R,4S,5R)-3-hydroxymethyl-2-pentylpiperidine-4,5-diol, are 20 µM (square), 2 µM (triangle), 0.2 µM (diamond), 0.02 µM (circle) and 0 µM (line).

[4] = tested on: mutated beta-galactosidase; test: Increase of mutated beta-galactosidase activity in fibroblasts of GM1-gangliosidosis patients (Example 6); format: cell-based, human; conditions: 4 days
Description: GM02439 and GM05335 fibroblasts (Coriell Institute) were cultured for 4 days in the presence or the absence of 2 µM of (2R,3R,4S,5R)-3-hydroxymethyl-2-pentylpiperidine-4,5-diol. Cells were lysed in 100 mM sodium citrate, pH 4.8, supplemented with 1% Triton X-100 and protease inhibitors. B eta-galactosidase and beta-hexosaminidase activities were then determined in the cell lysates using fluorescence and colorimetric assays, respectively. Results presented are means of 4 values obtained from independent cultures. […] Hatched and empty bars: beta-galactosidase and beta-hexosaminidase activities, respectively.

Alpha-hexosaminidase = test: Glycosidase specificity panel (Example 4); format: biochemical, Human
From the text: as §2

Beta-hexosaminidase [5] = test: Glycosidase specificity panel (Example 4); format: biochemical, Human
From the text: as §2

Beta-glucosidase = test: Glycosidase specificity panel (Example 4); format: biochemical, Human
From the text: as §2

Alpha-glucosidase = test: Glycosidase specificity panel (Example 4); format: biochemical, Human
From the text: as §2

Beta-galactosidase [6] = target: T1, Beta-galactosidase; test: Glycosidase specificity panel, beta-galactosidase from PBMC lysate (Example 4); format: biochemical
From the text: as §2

Beta-hexosaminidase [7] = test: Beta-hexosaminidase activity in fibroblasts of GM1-gangliosidosis patients (Example 6); format: cell-based, human; conditions: GM02439 and GM05335 fibroblasts, 2 µM, 4 days
Description: GM02439 and GM05335 fibroblasts (Coriell Institute) were cultured for 4 days in the presence or the absence of 2 µM of (2R,3R,4S,5R)-3-hydroxymethyl-2-pentylpiperidine-4,5-diol. Cells were lysed in 100 mM sodium citrate, pH 4.8, supplemented with 1% Triton X-100 and protease inhibitors. B eta-galactosidase and beta-hexosaminidase activities were then determined in the cell lysates using fluorescence and colorimetric assays, respectively. Results presented are means of 4 values obtained from independent cultures. Percent of deviation of each value is <30% from the mean. Hatched and empty bars: beta-galactosidase and beta-hexosaminidase activities, respectively.

[8] = human PBMC lysate, pH 7.3, 2 hours at 37°C, Example 3, read-out: IC50

With `CCCCCC1NCC(O)[C@@H](O)[C@H]1CO` (stereo in doubt) [(2R,3R,4S,5S)-3-hydroxymethyl-2-pentylpiperidine-4,5-diol] the “fold less potent than (2R,3R,4S,5R) isomer” value (Beta-galactosidase [1]; Example 3) was 150 fold and the IC50 (Beta-galactosidase [1]; [8]) was 1.5 µM.

`OC[C@H]1CNC[C@@H](O)[C@H]1O` [4-epi-isofagomine] showed an IC50 (Beta-galactosidase [2]) of 0.07 µM and an IC50 (Beta-galactosidase [1]) of 0.8 µM.

Work on `CCCCC[C@H]1NC[C@@H](O)[C@@H](O)[C@H]1CO` [(2R,3R,4S,5R)-3-Hydroxymethyl-2-pentylpiperidine-4,5-diol] yielded an IC50 (Alpha-galactosidase) of 150 µM, an IC50 (Beta-glucuronidase) greater than 160 µM and an activity at 0.02 µM (Beta-galactosidase [3]; 0 minute) of 100%. The activity at 0.02 µM (Beta-galactosidase [3]; 5 minutes) was 70%, the activity at 0.02 µM (Beta-galactosidase [3]; 10 minutes) was 46% and the activity at 0.02 µM (Beta-galactosidase [3]; 20 minutes) was 23%. It also gave an activity at 0.02 µM (Beta-galactosidase [3]; 40 minutes) of 11%, an activity at 0.2 µM (Beta-galactosidase [3]; 0 minute) of 100% and an activity at 0.2 µM (Beta-galactosidase [3]; 5 minutes) of 81%. The activity at 0.2 µM (Beta-galactosidase [3]; 10 minutes) was 72%, the activity at 0.2 µM (Beta-galactosidase [3]; 20 minutes) was 56% and the activity at 0.2 µM (Beta-galactosidase [3]; 40 minutes) was 33%. For the same compound, the “time to loss of 50% of the beta-galactosidase activity” value (Beta-galactosidase [3]; 2 µM) was greater than 40 min, the activity at 2 µM (Beta-galactosidase [3]; 2 µM, 0 minute) was 100% and the activity at 2 µM (Beta-galactosidase [3]; 2 µM, 5 minutes) was 82%. The activity at 2 µM (Beta-galactosidase [3]; 2 µM, 10 minutes) was 84%, the activity at 2 µM (Beta-galactosidase [3]; 2 µM, 20 minutes) was 73% and the activity at 2 µM (Beta-galactosidase [3]; 2 µM, 40 minutes) was 70%. For the same compound, the “time to loss of 50% of the beta-galactosidase activity” value (Beta-galactosidase [3]; 20 µM) was greater than 40 min, the activity at 20 µM (Beta-galactosidase [3]; 20 µM, 0 minute) was 100% and the activity at 20 µM (Beta-galactosidase [3]; 20 µM, 5 minutes) was 93%. The activity at 20 µM (Beta-galactosidase [3]; 20 µM, 10 minutes) was 95%, the activity at 20 µM (Beta-galactosidase [3]; 20 µM, 20 minutes) was 85% and the activity at 20 µM (Beta-galactosidase [3]; 20 µM, 40 minutes) was 87%. For the same compound, the IC50 (Beta-galactosidase [1]; [8]) was 0.01 µM, the “increase of mutated beta-galactosidase activity relative to untreated cells” value ([4]; infantile GM1-gangliosidosis cell line GM05335, 2 µM) was 19 fold and the “increase of mutated beta-galactosidase activity relative to untreated cells” value ([4]; juvenile GM1-gangliosidosis cell line GM02439, 2 µM) was 6.5 fold. For the same compound, the IC50 (Alpha-hexosaminidase) was greater than 160 µM, the IC50 (Beta-hexosaminidase [5]) was greater than 160 µM and the IC50 (Beta-glucosidase) was 60 µM. The IC50 (Alpha-glucosidase) was greater than 160 µM, the IC50 (Beta-galactosidase [6]) was 0.02 µM and the “increase of the beta-hexosaminidase activity” value (Beta-hexosaminidase [7]) was “no increase”.

`CCCCCCCCCN1CC(O)C(O)C(CO)C1` (stereo not drawn) [N-nonyl-4-epi-isofagomine] was tested, and the “fold less inhibitory on human beta-galactosidase than 4-epi-isofagomine” value (Beta-galactosidase [2]) was 140 fold and the IC50 (Beta-galactosidase [2]) was 10 µM.
